How the values were obtained:
[1] = system: Haemaphysalis longicornis; assay: Test 2: killing of tick larvae of Haemaphysalis longicornis (immersion in emulsified aqueous solution); assay type: in vivo; settings: immersed 2 to 5 minutes, 25° C. for 24 hours, read-out: Combatting Effect of Larvae of Haemaphysalis longicornis (mortality of unfed larvae)
Description: (§1) Groups of 50 to 100 larvae of Boophilus microplus and Haemaphysalis longicornis of about two weeks old placed in paper packets were immeresed for 2 to 5 minutes in an emulsified aqueous solution of the test compounds of a concentration of 100 ppm, and the larvae were incubated at 25° C. for 24 hours according to the procedure described by Stone and Haydock (1962), and the rate of the larvae killed were determined. Each figure indicates mortality of unfed larvae after treatment with the test compounds.

Boophilus microplus [2] = assay: Test 1: inhibition of oviposition by Boophilus microplus (acetone solution dropped on back of blood-fed females); settings: Rhipicephalus microplus, topical, 336 h, read-out: Inhibition Ratio of Oviposition by Boophilus microplus
Description: (§3) One each of the adults of female Boophilus microplus or Haemaphysalis longicornis which had been allowed to suck blood fully was placed in a flat bottom test tube having a diameter of 10 millimeters and a depth of 35 millimeters. After rendering the chemicals to be tested into acetone solutions, the solutions were dropped to the back of the ticks in an amount corresponding to 110 gamma per one gram of body weight, using a micro syringe after which the acetone was evaporated. The test tube was then transferred to a desiccator containing a small portion of water where it was left standing at a constant temperature of 30° C., and the ticks were allowed to oviposit. Two weeks later, the amount of eggs laid per 1 gram of body weight was counted. Using this value and the amount of eggs laid in the case of the control group not treated with the chemicals, the rate of inhibition of oviposition was obtained as follows: [formula] where A is the number of eggs laid per gram of body weight of ticks of the group not treated with chemicals,
(§4) B is the number of eggs laid per gram of body weight of ticks of the group treated with chemicals.
(§5) The foregoing ratio was used to indicate the effectiveness of the chemicals tested.

Boophilus microplus [3] = assay: Test 2: killing of tick larvae of Boophilus microplus (immersion in emulsified aqueous solution); assay type: in vivo; settings: Rhipicephalus microplus, immersed 2 to 5 minutes, 25° C. for 24 hours, read-out: Combatting Effect of Larvae of Boophilus microplus (mortality of unfed larvae)
Description: as §1

[4] = system: Haemaphysalis longicornis; assay: Test 1: inhibition of oviposition by Haemaphysalis longicornis (acetone solution dropped on back of blood-fed females); settings: topical, 336 h, read-out: Inhibition Ratio of Oviposition by Haemaphysalis longicornis
Description: as §3, §4, §5

[5] = Test 4: acute oral toxicity in mice; set-up: species or system mice (male albino, strain ddY); settings: mouse, in vivo, single dose, observed for a week
Description: Acute oral toxicity was determined by using male albino mice strain ddY, 5 weeks old. The test compounds were administered orally once and the LD50 values were calculated after observing for a week.

Boophilus microplus [6] = assay: Test 3: inhibiting oviposition by Boophilus microplus (spray of diluted Recipe 1 emulsion); assay type: in vivo; settings: relative to water-sprayed control, two weeks, 30° C.
Description: (§2) An emulsion was prepared in accordance with the foregoing Recipe 1, using as its active ingredient the compound No. 12. Several classes of spraying liquids having the concentrations indicated in Table 3 were prepared by diluting this emulsion with water. Ten female Boophilus microplus which had sucked blood fully were placed on a filter paper, and the liquid described above was sprayed onto the ticks with a glass sprayer in an amount such that the liquid would flow down the backs of the ticks. The ticks were then immediately transferred to a wet filter paper disposed in a Petri dish, and when the liquid on the backs of the ticks became somewhat dried, the dish was covered. The Petri dish was then held at a constant temperature of 30° C. for two weeks, after which the total amount of eggs laid was counted. During the time the Petri dish was held at a constant temperature, the inside of the Petri dish was maintained in a state of high humidity by dropping a small amount of water onto the filter paper daily. The effectiveness was judged by the rate of eggs laid by the several treated groups relative to the total eggs laid in the case of the ticks of the control group, which had been sprayed with only water. On the other hand, the effectiveness in killing the female adults was judged by observation of the presence or absence of deaths. The case where the presence of deaths was observed is indicated with the symbol (+), and the case where there were no deaths is indicated with the symbol (-).

Boophilus microplus [7] = assay: Test 3: killing adults of Boophilus microplus (spray of diluted Recipe 1 emulsion); assay type: in vivo; set-up: key: (+): presence of deaths was observed; (-): there were no deaths; settings: female adults
Description: as §2

mice = settings: heretofore known tickicide; cited from earlier work
[8] = concentration of compound 0.003%
[9] = concentration of compound 0.01%
[10] = concentration of compound 0.03%

## CCN=C=NC(C)(C)c1ccccc1 [Compound 1, N-ethyl-N'-(2-phenyl-2-propyl)carbodiimide]
[1]
  mortality at 100 ppm: 98%

## CCCN=C=NC(C)(C)c1ccccc1 [Compound 2, N-n-propyl-N'-(2-phenyl-2-propyl)carbodiimide]
Boophilus microplus [2]
  pest or weed control at 110 µg/g: 100%

## CC(C)N=C=NC(C)(C)c1ccccc1 [Compound 3, N-iso-propyl-N'-(2-phenyl-2-propyl) carbodiimide]
Boophilus microplus [3]
  mortality at 100 ppm: 96.4%

## CC(C)(C)N=C=NC(C)(C)c1ccccc1 [Compound 4, N-tert-butyl-N'-(2-phenyl-2-propyl)carbodiimide]
[1]
  mortality at 100 ppm: 80.3%

## CCCCCN=C=NC(C)(C)c1ccccc1 [Compound 5, N-n-pentyl-N'-(2-phenyl-2-propyl)carbodiimide]
[1]
  mortality at 100 ppm: 100%
[4]
  pest or weed control at 110 µg/g: 100%

## CCCCCCN=C=NC(C)(C)c1ccccc1 [Compound 6, N-n-hexyl-N'-(2-phenyl-2-propyl)carbodiimide]
Boophilus microplus [2]
  pest or weed control at 110 µg/g: 96.3%
[5]
  LD50 at 168 h: 2000 mg/kg
Boophilus microplus [3]
  mortality at 100 ppm: 74.6%
[4]
  pest or weed control at 110 µg/g: 100%

## CCCCCCCN=C=NC(C)(C)c1ccccc1 [Compound 7, N-n-heptyl-N'-(2-phenyl-2-propyl)carbodiimide]
Boophilus microplus [2]
  pest or weed control at 110 µg/g: 100%
[4]
  pest or weed control at 110 µg/g: 100%

## CCCCCCCCN=C=NC(C)(C)c1ccccc1 [Compound 8, N-n-octyl-N'-(2-phenyl-2-propyl)carbodiimide]
Boophilus microplus [2]
  pest or weed control at 110 µg/g: 100%
[5]
  LD50 at 168 h: 6000 mg/kg
Boophilus microplus [3]
  mortality at 100 ppm: 68.5%
[4]
  pest or weed control at 110 µg/g: 100%

## CCCCC(CC)CN=C=NC(C)(C)c1ccccc1 (centres unmarked) [Compound 9, N-(2-ethyl-n-hexyl)-N'-(2-phenyl-2-propyl)carbodiimide]
[1]
  mortality at 100 ppm: 100%
[5]
  LD50 at 168 h: 7000 mg/kg
[4]
  pest or weed control at 110 µg/g: 100%

## CCCCCCCCCN=C=NC(C)(C)c1ccccc1 [Compound 10, N-n-nonyl-N'-(2-phenyl-2-propyl)carbodiimide]
Boophilus microplus [2]
  pest or weed control at 110 µg/g: 100%
[4]
  pest or weed control at 110 µg/g: 100%

## CCCCCCCCCCN=C=NC(C)(C)c1ccccc1 [Compound 11, N-n-decyl-N'-(2-phenyl-2-propyl)carbodiimide]
Boophilus microplus [2]
  pest or weed control at 110 µg/g: 93.1%
[4]
  pest or weed control at 110 µg/g: 100%

## CCCCCCCCCCCCN=C=NC(C)(C)c1ccccc1 [Compound 12, N-n-dodecyl-N'-(2-phenyl-2-propyl)carbodiimide]
[1]
  mortality at 100 ppm: 82.2%
Boophilus microplus [2]
  pest or weed control at 110 µg/g: 100%
Boophilus microplus [6]; [8]
  Rate of Eggs Laid: 94.8%
Boophilus microplus [6]; [9]
  Rate of Eggs Laid: 85.5%
Boophilus microplus [6]; [10]
  Rate of Eggs Laid: 62.6%
Boophilus microplus [6]; concentration of compound 0.1%
  Rate of Eggs Laid: 0%
Boophilus microplus [6]; concentration of compound 0.3%
  Rate of Eggs Laid: 0%
Boophilus microplus [6]; concentration of compound 1%
  Rate of Eggs Laid: 0%
Boophilus microplus [7]; [8]
  Effectiveness in Killing Adults: (-)
Boophilus microplus [7]; [9]
  Effectiveness in Killing Adults: (-)
Boophilus microplus [7]; [10]
  Effectiveness in Killing Adults: (-)
Boophilus microplus [7]; concentration of compound 0.1%
  Effectiveness in Killing Adults: (+)
Boophilus microplus [7]; concentration of compound 0.3%
  Effectiveness in Killing Adults: (+)
Boophilus microplus [7]; concentration of compound 1%
  Effectiveness in Killing Adults: (+)
[5]
  LD50 at 168 h: > 16000 mg/kg
Boophilus microplus [3]
  mortality at 100 ppm: 86.5%
[4]
  pest or weed control at 110 µg/g: 100%

## CCCCCCCCCCCCCCN=C=NC(C)(C)c1ccccc1 [Compound 13, N-n-myristyl-N'-(2-phenyl-2-propyl)carbodiimide]
Boophilus microplus [2]
  pest or weed control at 110 µg/g: 85%
Boophilus microplus [3]
  mortality at 100 ppm: 92.8%
[4]
  pest or weed control at 110 µg/g: 100%

## CCCCCCCCCCCCCCCCN=C=NC(C)(C)c1ccccc1 [Compound 14, N-n-cetyl-N'-(2-phenyl-2-propyl)carbodiimide]
[1]
  mortality at 100 ppm: 80.3%
[4]
  pest or weed control at 110 µg/g: 96.6%

## CCCCCCCCCCCCCCCCCCN=C=NC(C)(C)c1ccccc1 [Compound 15, N-n-stearyl-N'-(2-phenyl-2-propyl)carbodiimide]
[4]
  pest or weed control at 110 µg/g: 98%

## CC(C)(N=C=NC1CCCCC1)c1ccccc1 [Compound 16, N-cyclohexyl-N'-(2-phenyl-2-propyl)carbodiimide]
Boophilus microplus [2]
  pest or weed control at 110 µg/g: 100%
[5]
  LD50 at 168 h: 6000 mg/kg
Boophilus microplus [3]
  mortality at 100 ppm: 100%

## CC1CC(N=C=NC(C)(C)c2ccccc2)CC(C)(C)C1 (centres unmarked) [Compound 17, N-(3,3,5-trimethylcyclohexyl)-N'-(2-phenyl-2-propyl)carbodiimide]
[1]
  mortality at 100 ppm: 100%
Boophilus microplus [2]
  pest or weed control at 110 µg/g: 100%
[5]
  LD50 at 168 h: 11000 mg/kg
Boophilus microplus [3]
  mortality at 100 ppm: 100%
[4]
  pest or weed control at 110 µg/g: 100%

## CC(C)(N=C=Nc1ccccc1)c1ccccc1 [Compound 18, N-phenyl-N'-(2-phenyl-2-propyl)carbodiimide]
[1]
  mortality at 100 ppm: 100%
Boophilus microplus [3]
  mortality at 100 ppm: 100%

## Cc1ccc(N=C=NC(C)(C)c2ccccc2)cc1 [Compound 19, N-p-tolyl-N'-(2-phenyl-2-propyl)carbodiimide]
[1]
  mortality at 100 ppm: 86.6%
Boophilus microplus [3]
  mortality at 100 ppm: 81.8%

## COc1ccc(N=C=NC(C)(C)c2ccccc2)cc1 [Compound 20, N-p-methoxyphenyl-N-'-(2-phenyl-2-propyl)carbodiimide]
[1]
  mortality at 100 ppm: 96.4%

## COc1ccc(N=C=NC(C)(C)c2ccccc2)c(C)c1 [Compound 21, N-p-methoxy-o-tolyl-N'-(2-phenyl-2-propyl)carbodiimide]
[1]
  mortality at 100 ppm: 100%

## CC(C)(N=C=Nc1ccc(Cl)c(Cl)c1)c1ccccc1 [Compound 22, N-3,4-dichlorophenyl-N'-(2-phenyl-2-propyl)carbodiimide]
[1]
  mortality at 100 ppm: 82.5%

## CC(C)(N=C=NCc1ccccc1)c1ccccc1 [Compound 23, N-benzyl-N'-(2-phenyl-2-propyl)carbodiimide]
[1]
  mortality at 100 ppm: 99.1%
Boophilus microplus [2]
  pest or weed control at 110 µg/g: 81.9%
Boophilus microplus [3]
  mortality at 100 ppm: 100%

## CC(N=C=NC(C)(C)c1ccccc1)c1ccccc1 (stereo not drawn) [Compound 24, N-α-phenylethyl-N'-(2-phenyl-2-propyl)carbodiimide]
[1]
  mortality at 100 ppm: 99.1%
Boophilus microplus [3]
  mortality at 100 ppm: 99.5%
[4]
  pest or weed control at 110 µg/g: 100%

## CC(C)(N=C=NCCc1ccccc1)c1ccccc1 [Compound 25, N-β-phenylethyl-N'-(2-phenyl-2-propyl)carbodiimide]
[1]
  mortality at 100 ppm: 100%
Boophilus microplus [2]
  pest or weed control at 110 µg/g: 100%
Boophilus microplus [3]
  mortality at 100 ppm: 91.2%
[4]
  pest or weed control at 110 µg/g: 100%

## CC(C)(N=C=NCc1ccc(Cl)cc1)c1ccccc1 [Compound 26, N-p-chlorobenzyl-N'-(2-phenyl-2-propyl)carbodiimide]
[1]
  mortality at 100 ppm: 86.4%
Boophilus microplus [3]
  mortality at 100 ppm: 81.9%

## CC(C)(N=C=NCc1ccco1)c1ccccc1 [Compound 27, N-furfuryl-N'-(2-phenyl-2-propyl)carbodiimide]
[1]
  mortality at 100 ppm: 91.1%
Boophilus microplus [3]
  mortality at 100 ppm: 77.8%

## Cc1cc(Cl)ccc1N=CN(C)C [Control Chemical I, reference compound]
Boophilus microplus [2]
  pest or weed control at 110 µg/g: 78.2%
[5]
  LD50 at 168 h: 160 mg/kg

## CNC(=O)Oc1cccc2ccccc12 [Control Chemical II, reference compound]
Boophilus microplus [2]
  pest or weed control at 110 µg/g: 27%

## CCOP(=S)(OCC)Oc1nc(Cl)c(Cl)cc1Cl [Control Chemical III, O,O-diethyl O-(3,5,6-trichloro-2-pyridyl)phosphorothioate, reference compound]
mice
  LD50 for mice: 70 mg/kg
[5]
  LD50 at 168 h: 70 mg/kg
